Tested on: hair loss, Stage III Vertex/Stage IV MPHL
Experiment: Example 1: single subject given the components cumulatively over 7 months
Type: in vivo, human
Conditions: taken before the implementations of the disclosure
Protocol: During month 4, the subject was additionally given a daily 250 mg dose of Ashwagandha extracted from Withania somnifera, containing at least 8% withanolide glycosides and 32% oligosaccharides from the roots and leaves (Sensoril®, Natreon, New Brunswick, NJ) for stress associated with their condition and work. […] During month 5, the subject was additionally given a daily dose of Certified Organic saw palmetto extract Standardized 85-95% fatty acids (Valensa Eustis, FL) in the amount of 640 mg a day. […] During month 6, the subject added a 100 mg dose of tocotrienol/tocopherol complex comprising 78% tocotrienols and 22% tocopherols (Tocomax™ 20%, Carotech, Malaysia) a day. […] Lastly, in month 7, They were additionally given approximately 1000 mg of hydrolyzed marine collagen Types I and III (Youtheory, Tustin, CA) and 100 mg of hyaluronic acid (NOW Foods, Bloomingdale, IL).

O=C(O)CCCC[C@@H]1SC[C@@H]2NC(=O)N[C@@H]21 [biotin]
hair outcome of earlier treatments (subject's history): did not result in a noticeable cessation of hair loss or new hair growth

CC(C)(C)NC(=O)[C@H]1CC[C@H]2[C@@H]3CC[C@H]4NC(=O)C=C[C@]4(C)[C@H]3CC[C@]12C [finasteride]
hair outcome of earlier treatments (subject's history): improvement was minimal

Source: patent publication US12151017B2, “Compositions and methods for hair regrowth” (Nutraceutical Wellness, Inc., priority 2015, dated 2024)
